From US20120190566A1, “COMPOSITIONS AND METHODS FOR INHIBITING BIOFILMS” (priority 2009, published 2012)

Columns and labels:
CsgA = CsgA (Escherichia coli, UniProt P28307); settings: peptides immobilized on glass slide; recombinant CsgA ~2 μm, about 10% labeled with ALEXA-647; stringent wash
Experimental: Peptide array synthesis, hybridization and quantification. […] Each peptide spot (250 μM in diameter) is printed with 3 drops of 0.5 nL of peptide solution at a concentration of approximately 2.5 μM using non-contact printing (JPT Peptide Technologies GmbH). The unreacted peptides are removed from the hydrogel slides, dried and then the slides are blocked with 3% BSA in PBST for 1 hr. CsgA proteins are denatured in 6 M GuHCl at 100° C. for approximately 20 minutes, diluted 125 times in PBST containing 3% BSA to a final concentration of 1-5 μM and a label ratio of 5-75%. A single peptide array is incubated with approximately 2-3 mL of diluted CsgA using an ATLAS™ hybridization chamber (BD Biociences) without mixing for a given period of time. The peptide arrays are then washed 5 times with 50 mL of 2% SDS for 30 minutes, 5 times with 50 mL of water, 3 times with 50 mL of methanol and then spun dry. […] The arrays are imaged using a GENEPIX® 4000A scanner and the median values for the peptide spots of two to three replicates are quantified using GENEPIX® Pro 6.0 software (Molecular Devices).
Denatured peptides were arrayed on reactive glass slides and their interaction with soluble, fluorescently labeled CsgA was studied.
A peptide library of CsgB sequences was generated and immobilized on a glass slide essentially as described above. […]

curli = curli (Escherichia coli, UniProt P28307); test: Inhibition of curli assembly (FIG. 4); format: biochemical; settings: in the presence of compound
Source text: DAPH-12 (top) blocks tyrosine stacking, while Amphotericin B (bottom) binds to the edge strands and prevents amyloid assembly.

curli, sequence (P28307 21-151): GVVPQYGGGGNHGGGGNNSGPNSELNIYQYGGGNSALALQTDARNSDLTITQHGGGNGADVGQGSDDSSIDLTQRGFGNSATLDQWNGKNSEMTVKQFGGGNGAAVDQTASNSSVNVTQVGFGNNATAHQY
CsgA, sequence (P28307 21-151): as above

Molecule	nucleation of assembly of soluble, fluorescently labeled CsgA by arrayed peptides (CsgA)	inhibition of curli assembly (curli)
LRQGGSKLLAVVAQEGSSNRAK [SEQ ID NO: 1]	nucleate assembly of CsgA	–
COc1ccc(Nc2cc3c(cc2Nc2ccc(OC)cc2)C(=O)NC3=O)cc1 [DAPH-12]	–	inhibition of curli assembly
C[C@@H]1[C@H](O)[C@@H](C)/C=C/C=C/C=C/C=C/C=C/C=C/C=C/[C@H](O[C@@H]2O[C@H](C)[C@@H](O)[C@H](N)[C@@H]2O)C[C@@H]2O[C@](O)(C[C@@H](O)C[C@@H](O)[C@H](O)CC[C@@H](O)C[C@@H](O)CC(=O)O[C@H]1C)C[C@H](O)[C@H]2C(=O)O [Amphotericin B]	–	inhibition of curli assembly
GTQKTAIVVQRQSQMAIRVT [SEQ ID NO: 2]	nucleate assembly of CsgA	–
